# Laboratory results published in patent US20020137929A1, “1 - (3-heterocyclylphenyl) isothiourea, -isourea, -guanidine and -amidine herbicidal agents” (Intellectual Property Department, BASF Aktiengesellschaft, priority 1998, published 2002).
# Tests used:
# ZEAMX (Corn, Field) = experiment: Preemergence herbicidal evaluation; format: in vivo, Zea mays; conditions: rated 4-5 weeks after treatment
# Summary of the method: (§1)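 Herbicidal effect scored visually, 0-9, at 4 to 5 weeks against a control; compound applied preemergence by aqueous acetone spray to seeded soil at about 0.0156 to 0.500 kg/ha.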
# ABUTH (Velvetleaf) = experiment: Postemergence herbicidal evaluation; format: in vivo, Abutilon theophrasti
# Summary of the method: (§2)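 Visual 0–9 rating versus control (stand, vigor, malformation, size, chlorosis, overall appearance), taken four to five weeks post-spray. Two-week-old seedlings received roughly 0.0156–0.500 kg/ha active in acetone/water (50/50) with 0.5% TWEEN 20 via nozzle at 40 psi.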
# GALAP (Galium) = experiment: Preemergence herbicidal evaluation; format: in vivo, Galium aparine; conditions: rated 4-5 weeks after treatment
# Summary of the method: as §1
# [1] = test system: GLXMAW (Soybean, Williams); experiment: Postemergence herbicidal evaluation; format: in vivo, Glycine max, (L.) Merr. cv Williams
# Summary of the method: as §2
# CASOB (Sicklepod) = experiment: Preemergence herbicidal evaluation; format: in vivo, Cassia obtusifolia; conditions: rated 4-5 weeks after treatment
# Summary of the method: as §1
# SETVI (Foxtail, Green) = experiment: Postemergence herbicidal evaluation; format: in vivo, Setaria viridis
# Summary of the method: as §2
# AMBEL (Ragweed, Common) = experiment: Postemergence herbicidal evaluation; format: in vivo, Ambrosia artemisifolia
# Summary of the method: as §2
# [2] = test system: IPOHE (Morningglory, Ivyleaf); experiment: Preemergence herbicidal evaluation; format: in vivo, Ipomoea hederacea; conditions: rated 4-5 weeks after treatment
# Summary of the method: as §1
# [3] = test system: IPOHE (Morningglory, Ivyleaf); experiment: Postemergence herbicidal evaluation; format: in vivo, Ipomoea hederacea
# Summary of the method: as §2
# [4] = test system: ECHORC (Watergrass (Calif.)); experiment: Postemergence weed control under flooded paddy conditions; format: in vivo, Echinochloa oryzoides; conditions: postemergence weeds, 3-4 weeks after treatment
# Summary of the method: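 Injury ratings (0–9 scale covering stand, vigor, malformation, size, chlorosis and overall appearance versus control) were made three to four weeks after treatment. Test material, about 0.0313 to 0.500 kg/ha a.i. in 50/50 v/v aqueous/acetone, was added to flood water 1.5 to 3 cm deep over 3 to 5 cm weeds and 1.5 to 2.5 leaf rice.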
# [5] = test system: TRZAWR (Wheat, Winter, cv Riband); experiment: Postemergence herbicidal evaluation; format: in vivo, Triticum aestivum
# Summary of the method: as §2
# ECHCG (Barnyardgrass) [6] = experiment: Preemergence herbicidal evaluation; format: in vivo, Echinochloa crus-galli; conditions: rated 4-5 weeks after treatment
# Summary of the method: as §1
# [7] = test system: CHEAL (Lambsquarters, Common); experiment: Preemergence herbicidal evaluation; format: in vivo, Chenopodium album; conditions: rated 4-5 weeks after treatment
# Summary of the method: as §1
# ECHCG (Barnyardgrass) [8] = experiment: Postemergence herbicidal evaluation; format: in vivo, Echinochloa crus-galli
# Summary of the method: as §2
compound,measurement,setting,value
"C=CCN1C(=O)C(CC(=O)Nc2ccccc2)SC1=Nc1cc(-n2c(=O)cc(C(F)(F)F)n(C)c2=O)c(F)cc1Cl (centres unmarked) [Compound 44, 3-Allyl-2-{{2-chloro-5-[3,6-dihydro-3-methyl-2,6-dioxo-4-(trifluoromethyl)-1(2H)-pyrimidinyl]-4-fluorophenyl}imino}-4-oxo-5-thiazolidineacetanilide]",Preemergence herbicidal rating ZEAMX,"ZEAMX (Corn, Field); rate 0.0156 kg/ha",0.0
same,Preemergence herbicidal rating ZEAMX,"ZEAMX (Corn, Field); rate 0.0313 kg/ha",0.0
same,Preemergence herbicidal rating ZEAMX,"ZEAMX (Corn, Field); rate 0.0625 kg/ha",0.0
same,Preemergence herbicidal rating ZEAMX,"ZEAMX (Corn, Field); rate 0.1250 kg/ha",1.0
same,Preemergence herbicidal rating ZEAMX,"ZEAMX (Corn, Field); rate 0.2500 kg/ha",0.0
same,Preemergence herbicidal rating ZEAMX,"ZEAMX (Corn, Field); rate 0.5000 kg/ha",0.0
same,Postemergence herbicidal rating ABUTH,ABUTH (Velvetleaf); Rate 0.0156 kg/ha,9.0
same,Postemergence herbicidal rating ABUTH,ABUTH (Velvetleaf); Rate 0.0313 kg/ha,7.0
same,Postemergence herbicidal rating ABUTH,ABUTH (Velvetleaf); Rate 0.0625 kg/ha,9.0
same,Postemergence herbicidal rating ABUTH,ABUTH (Velvetleaf); Rate 0.1250 kg/ha,9.0
same,Preemergence herbicidal rating GALAP,GALAP (Galium); rate 0.0156 kg/ha,1.0
same,Preemergence herbicidal rating GALAP,GALAP (Galium); rate 0.0313 kg/ha,1.0
same,Preemergence herbicidal rating GALAP,GALAP (Galium); rate 0.0625 kg/ha,1.0
same,Preemergence herbicidal rating GALAP,GALAP (Galium); rate 0.1250 kg/ha,9.0
same,Preemergence herbicidal rating GALAP,GALAP (Galium); rate 0.2500 kg/ha,9.0
same,Preemergence herbicidal rating GALAP,GALAP (Galium); rate 0.5000 kg/ha,9.0
same,Postemergence herbicidal rating GLXMAW,[1]; Rate 0.0156 kg/ha,4.5
same,Postemergence herbicidal rating GLXMAW,[1]; Rate 0.0313 kg/ha,5.0
same,Postemergence herbicidal rating GLXMAW,[1]; Rate 0.0625 kg/ha,5.5
same,Postemergence herbicidal rating GLXMAW,[1]; Rate 0.1250 kg/ha,6.0
same,Preemergence herbicidal rating CASOB,CASOB (Sicklepod); rate 0.0156 kg/ha,0.0
same,Preemergence herbicidal rating CASOB,CASOB (Sicklepod); rate 0.0313 kg/ha,0.0
same,Preemergence herbicidal rating CASOB,CASOB (Sicklepod); rate 0.0625 kg/ha,0.0
same,Preemergence herbicidal rating CASOB,CASOB (Sicklepod); rate 0.1250 kg/ha,1.0
same,Preemergence herbicidal rating CASOB,CASOB (Sicklepod); rate 0.2500 kg/ha,0.0
same,Preemergence herbicidal rating CASOB,CASOB (Sicklepod); rate 0.5000 kg/ha,1.0
same,Postemergence herbicidal rating SETVI,"SETVI (Foxtail, Green); Rate 0.0156 kg/ha",0.0
same,Postemergence herbicidal rating SETVI,"SETVI (Foxtail, Green); Rate 0.0313 kg/ha",0.0
same,Postemergence herbicidal rating SETVI,"SETVI (Foxtail, Green); Rate 0.0625 kg/ha",2.0
same,Postemergence herbicidal rating SETVI,"SETVI (Foxtail, Green); Rate 0.1250 kg/ha",2.0
same,Postemergence herbicidal rating AMBEL,"AMBEL (Ragweed, Common); Rate 0.0156 kg/ha",4.0
same,Postemergence herbicidal rating AMBEL,"AMBEL (Ragweed, Common); Rate 0.0313 kg/ha",4.0
same,Postemergence herbicidal rating AMBEL,"AMBEL (Ragweed, Common); Rate 0.0625 kg/ha",7.0
same,Postemergence herbicidal rating AMBEL,"AMBEL (Ragweed, Common); Rate 0.1250 kg/ha",9.0
same,Preemergence herbicidal rating IPOHE,[2]; rate 0.0156 kg/ha,0.0
same,Preemergence herbicidal rating IPOHE,[2]; rate 0.0313 kg/ha,0.0
same,Preemergence herbicidal rating IPOHE,[2]; rate 0.0625 kg/ha,0.0
same,Preemergence herbicidal rating IPOHE,[2]; rate 0.1250 kg/ha,1.0
same,Preemergence herbicidal rating IPOHE,[2]; rate 0.2500 kg/ha,0.0
same,Preemergence herbicidal rating IPOHE,[2]; rate 0.5000 kg/ha,0.0
same,Postemergence herbicidal rating IPOHE,[3]; Rate 0.0156 kg/ha,9.0
same,Postemergence herbicidal rating IPOHE,[3]; Rate 0.0313 kg/ha,9.0
same,Postemergence herbicidal rating IPOHE,[3]; Rate 0.0625 kg/ha,9.0
same,Postemergence herbicidal rating IPOHE,[3]; Rate 0.1250 kg/ha,9.0
same,Herbicidal rating ECHORC,[4]; rate 0.0313 kg/ha,6.0
same,Herbicidal rating ECHORC,[4]; rate 0.0625 kg/ha,6.0
same,Herbicidal rating ECHORC,[4]; rate 0.1250 kg/ha,7.0
same,Herbicidal rating ECHORC,[4]; rate 0.2500 kg/ha,8.0
same,Postemergence herbicidal rating TRZAWR,[5]; Rate 0.0156 kg/ha,3.0
same,Postemergence herbicidal rating TRZAWR,[5]; Rate 0.0313 kg/ha,4.0
same,Postemergence herbicidal rating TRZAWR,[5]; Rate 0.0625 kg/ha,4.0
same,Postemergence herbicidal rating TRZAWR,[5]; Rate 0.1250 kg/ha,4.0
same,Preemergence herbicidal rating ECHCG,ECHCG (Barnyardgrass) [6]; rate 0.0156 kg/ha,0.0
same,Preemergence herbicidal rating ECHCG,ECHCG (Barnyardgrass) [6]; rate 0.0313 kg/ha,0.0
same,Preemergence herbicidal rating ECHCG,ECHCG (Barnyardgrass) [6]; rate 0.0625 kg/ha,0.0
same,Preemergence herbicidal rating ECHCG,ECHCG (Barnyardgrass) [6]; rate 0.1250 kg/ha,0.0
same,Preemergence herbicidal rating ECHCG,ECHCG (Barnyardgrass) [6]; rate 0.2500 kg/ha,0.0
same,Preemergence herbicidal rating ECHCG,ECHCG (Barnyardgrass) [6]; rate 0.5000 kg/ha,0.0
same,Preemergence herbicidal rating CHEAL,[7]; rate 0.0156 kg/ha,3.0
same,Preemergence herbicidal rating CHEAL,[7]; rate 0.0313 kg/ha,5.0
same,Preemergence herbicidal rating CHEAL,[7]; rate 0.0625 kg/ha,4.0
same,Preemergence herbicidal rating CHEAL,[7]; rate 0.1250 kg/ha,9.0
same,Preemergence herbicidal rating CHEAL,[7]; rate 0.2500 kg/ha,9.0
same,Preemergence herbicidal rating CHEAL,[7]; rate 0.5000 kg/ha,9.0
same,Postemergence herbicidal rating ECHCG,ECHCG (Barnyardgrass) [8]; Rate 0.0156 kg/ha,0.0
same,Postemergence herbicidal rating ECHCG,ECHCG (Barnyardgrass) [8]; Rate 0.0313 kg/ha,1.0
same,Postemergence herbicidal rating ECHCG,ECHCG (Barnyardgrass) [8]; Rate 0.0625 kg/ha,2.0
same,Postemergence herbicidal rating ECHCG,ECHCG (Barnyardgrass) [8]; Rate 0.1250 kg/ha,1.0
